# Data taken from patent US9555022B2, “Substituted triazolopyridines” (Bayer Intellectual Property GmbH, priority 2010, dated 2017).
# Structures can show the parent of a compound that is named as a salt.
# Target: human full length recombinant Mps-1 kinase (Homo sapiens (Human), UniProt P33981)
# Assay: Mps-1 Kinase Assay (TR-FRET)
# Assay type: biochemical
# Settings: 10 μM ATP, 1 μM biotinylated peptide substrate, 60 min at 22° C., read-out: Mps-1 Inhibition, IC50 in M
# Protocol: The human kinase Mps-1 phosphorylates a biotinylated substrate peptide. Detection of the phosphorylated product is achieved by time-resolved fluorescence resonance energy transfer (TR-FRET) from Europium-labelled anti-phospho-Serine/Threonine antibody as donor to streptavidin labelled with cross-linked allophycocyanin (SA-XLent) as acceptor. Compounds are tested for their inhibition of the kinase activity.
# N-terminally GST-tagged human full length recombinant Mps-1 kinase (purchased from Invitrogen, Karslruhe, Germany, cat. no PV4071) was used. As substrate for the kinase reaction a biotinylated peptide of the amino-acid sequence […] (C-terminus in amide form, purchased from Biosynthan GmbH, Berlin) was used.
# The concentration of Mps-1 in the assay was adjusted to the activity of the enzyme lot and was chosen appropriate to have the assay in the linear range, typical enzyme concentrations were in the range of about 1 nM (final conc. in the 5 μl assay volume).
# The resulting mixture was incubated 1 h at 22° C. to allow the binding of the phosphorylated peptide to the anti-phospho(Ser/Thr)-Europium-antibody. Subsequently the amount of phosphorylated substrate was evaluated by measurement of the resonance energy transfer from the Europium-labelled anti-phospho(Ser/Thr) antibody to the Streptavidin-XLent.
# Sequence of human full length recombinant Mps-1 kinase (P33981 whole entry): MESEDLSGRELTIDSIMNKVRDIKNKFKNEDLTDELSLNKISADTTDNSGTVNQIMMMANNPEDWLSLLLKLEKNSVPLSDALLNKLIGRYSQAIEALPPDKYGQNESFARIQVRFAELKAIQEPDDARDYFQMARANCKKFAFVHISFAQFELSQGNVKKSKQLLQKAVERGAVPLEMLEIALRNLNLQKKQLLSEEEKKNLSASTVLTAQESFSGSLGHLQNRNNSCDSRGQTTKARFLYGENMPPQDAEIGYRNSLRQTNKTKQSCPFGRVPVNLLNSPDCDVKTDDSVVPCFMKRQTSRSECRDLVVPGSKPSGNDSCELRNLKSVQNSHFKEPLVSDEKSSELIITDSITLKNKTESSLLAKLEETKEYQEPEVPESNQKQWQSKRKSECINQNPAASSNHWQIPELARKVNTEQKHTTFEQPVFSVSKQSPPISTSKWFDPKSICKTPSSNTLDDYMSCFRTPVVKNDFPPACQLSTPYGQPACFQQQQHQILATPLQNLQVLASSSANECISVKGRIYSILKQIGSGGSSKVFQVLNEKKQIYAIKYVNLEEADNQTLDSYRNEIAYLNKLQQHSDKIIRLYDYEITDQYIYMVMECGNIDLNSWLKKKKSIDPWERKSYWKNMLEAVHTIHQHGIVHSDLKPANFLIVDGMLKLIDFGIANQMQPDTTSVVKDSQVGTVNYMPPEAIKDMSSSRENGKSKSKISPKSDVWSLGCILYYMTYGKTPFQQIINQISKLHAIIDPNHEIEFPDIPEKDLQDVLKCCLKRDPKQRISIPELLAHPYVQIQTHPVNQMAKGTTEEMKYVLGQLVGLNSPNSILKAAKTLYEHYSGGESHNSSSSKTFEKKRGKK
row,SMILES,IC50
1,"CCOc1cc(C(=O)N2CC(O)C2)ccc1Nc1nc2ccc(-c3ccc(NC(=O)Cc4ccc(F)cc4)cc3)cn2n1 [Example 02.24, N-{4-[2-({2-ethoxy-4-[(3-hydroxyazetidin-1-yl)carbonyl]phenyl}amino)[,2]triazolo[1,5-a]pyridin-6-yl]phenyl}-2-(4-fluorophenyl)acetamide]",≤ 1 nM
2,"CCOc1cc(C(=O)NC2CCN(C)CC2)ccc1Nc1nc2ccc(-c3ccc(C(=O)NCC4CC4)cc3)cn2n1 [Example 03.04, 4-[(6-{4-[(cyclopropylmethyl)carbamoyl]phenyl}[,2]triazolo[1,5-a]pyridin-2-yl)amino]-3-ethoxy-N-(1-methylpiperidin-4-yl)benzamide]",≤ 1 nM
3,"COc1cc(C(=O)N2CCC(O)CC2)ccc1Nc1nc2ccc(-c3ccc(C(=O)NCc4ccc(F)cc4)cc3)cn2n1 [Example 04.10, N-(4-fluorobenzyl)-4-[2-({4-[(4-hydroxypiperidin-1-yl)carbonyl]-2-methoxyphenyl}amino)[,2]triazolo[1,5-a]pyridin-6-yl]benzamide]",≤ 1 nM
4,"CCOc1cc(C(=O)N2CC3(COC3)C2)ccc1Nc1nc2ccc(-c3ccc(C(=O)NCc4ccc(F)cc4)cc3)cn2n1 [Example 04.12, 4-(2-{[2-ethoxy-4-(2-oxa-6-azaspiro[3.3]hept-6-ylcarbonyl)phenyl]amino}[,2]-triazolo[1,5-a]pyridin-6-yl)-N-(4-fluorobenzyl)benzamide]",≤ 1 nM
5,"COc1cc(N2CCN(C)CC2)ccc1Nc1nc2ccc(-c3ccc(C(=O)NCC4CC4)cc3)cn2n1 [Example 03.05, N-(cyclopropylmethyl)-4-(2-{[2-methoxy-4-(4-methylpiperazin-1-yl)phenyl]amino}[,2]-triazolo[1,5-a]pyridin-6-yl)benzamide trifluoroacetate]",6.33 nM
6,"COc1cc(C(=O)N2CC3(COC3)C2)ccc1Nc1nc2ccc(-c3ccc(C(=O)NCc4ccc(F)cc4)cc3)cn2n1 [Example 04.07, N-(4-fluorobenzyl)-4-(2-{[2-methoxy-4-(2-oxa-6-azaspiro[3.3]hept-6-ylcarbonyl)phenyl]amino}[,2]triazolo[1,5-a]pyridin-6-yl)benzamide]",≤ 1 nM
7,"COc1cc(N2CCOC2=O)ccc1Nc1nc2ccc(-c3ccc(C(=O)NCc4ccc(F)cc4)cc3)cn2n1 [Example 04.03, N-(4-fluorobenzyl)-4-(2-{[2-methoxy-4-(2-oxo-1,3-oxazolidin-3-yl)phenyl]amino}[,2]-triazolo[1,5-a]pyridin-6-yl)benzamide]",≤ 1 nM

# Next, values leading:
row,IC50,SMILES
1,≤ 1 nM,"O=C(NCc1ccc(F)cc1)c1ccc(-c2ccc3nc(Nc4ccc(C(=O)N5CC(O)C5)cc4OCC(F)(F)F)nn3c2)cc1 [Example 04.16, N-(4-fluorobenzyl)-4-[2-({4-[(3-hydroxyazetidin-1-yl)carbonyl]-2-(2,2,2-trifluoroethoxy)phenyl}amino)[,2]triazolo[1,5-a]pyridin-6-yl]benzamide]"
2,≤ 1 nM,"O=C(NCc1ccc(F)cc1)c1ccc(-c2ccc3nc(Nc4ccc(C(=O)N5CC6(COC6)C5)cc4F)nn3c2)cc1 [Example 04.20, N-(4-fluorobenzyl)-4-(2-{[2-fluoro-4-(2-oxa-6-azaspiro[3.3]hept-6-ylcarbonyl)phenyl]amino}[,2]triazolo[1,5-a]pyridin-6-yl)benzamide]"
3,≤ 1 nM,"COc1cc(C(=O)N2CC(F)C2)ccc1Nc1nc2ccc(-c3ccc(C(=O)NCc4ccc(F)cc4)cc3)cn2n1 [Example 04.35, 4-[2-({4-[(3-fluoroazetidin-1-yl)carbonyl]-2-methoxyphenyl}amino)[,2]triazolo[1,5-a]pyridin-6-yl]-N-(4-fluorobenzyl)benzamide]"
4,≤ 1 nM,"COc1cc(C(=O)N2CCOCC2)ccc1Nc1nc2ccc(-c3ccc(NC(=O)Cc4ccc(F)cc4)c(F)c3)cn2n1 [Example 10.01, N-[2-fluoro-4-(2-{[2-methoxy-4-(morpholin-4-ylcarbonyl)phenyl]amino}[,2]-triazolo[1,5-a]pyridin-6-yl)phenyl]-2-(4-fluorophenyl)acetamide]"
